Results: publication PMC11728707, “Chemical Composition and Assessment of the Anti-Inflammatory, Antioxidant, Cytotoxic and Skin Enzyme Inhibitory Activities of Citrus sinensis (L.) Osbeck Essential Oil and Its Major Compound Limonene” (Pharmaceuticals, 2024)

Molecular target: T1, tyrosinase
T1 construct: gene PPO3
Test: spectrophotometric L-DOPA oxidation assay, […] nm
Format: biochemical
Details: 5 mM L-DOPA, 50 mM phosphate pH 6.5, 37 °C

**Q.** Which Tyrosinase does the source give for `O=c1c(O)c(-c2ccc(O)c(O)c2)oc2cc(O)cc(O)c12` [Quercetin] here?
**A.** Its Tyrosinase is 111.03 ± 0.1 µg/mL.

**Q.** `C=C(C)[C@H]1CC=C(C)CC1` [Limonene] was tested. Which Tyrosinase did it give?
**A.** Its Tyrosinase is 86.07 ± 1.53 µg/mL.
